{
  "source": "ChEMBL document CHEMBL4706648",
  "about": "“Antitubercular 2-Pyrazolylpyrimidinones: Structure-Activity Relationship and Mode-of-Action Studies” (J Med Chem, 2021)",
  "key": {"[1]": {"system": "Mycobacterium tuberculosis", "test": "Antimycobacterial activity against mmpL3 gene silenced Mycobacterium tuberculosis H37Rv assessed as inhibition of bacterial growth grown under middlebrook 7H9 medium incubated for 7 days by alamar blue broth microdilution method", "assay_type": "functional, organism-based", "settings": "time 7.0 day"}, "[2]": {"test": "Apparent half life in C57/BL6 mouse blood at 20 mg/kg, po measured upto 24 hrs by LC-MS/MS analysis", "assay_type": "ADME, organism-based", "settings": "for half-life: C57/BL6, mouse, blood, read-out: t1/2(app) (converted)"}, "[3]": {"test": "Cmax in C57/BL6 mouse blood at 2 mg/kg, iv administered as bolus dose measured upto 24 hrs by LC-MS/MS analysis", "assay_type": "ADME, organism-based", "parameters": "route intravenous, dose 2 mg/kg, time <=24"}, "[4]": {"test": "Kinetic solubility of compound at 200 uM at pH 7.4 measured after 20 hrs by HPLC-DAD analysis", "assay_type": "physicochemical", "settings": "buffer, pH 7.4, 20 h"}, "[5]": {"test": "AUC (0 to infinity) in C57/BL6 mouse blood at 20 mg/kg, po measured upto 24 hrs by LC-MS/MS analysis", "assay_type": "ADME, organism-based", "parameters": "route oral, dose 20 mg/kg, time <=24"}, "[6]": {"system": "Mycobacterium tuberculosis", "test": "Bactericidal activity against Mycobacterium tuberculosis H37Rv assessed as reduction in CFU grown under middlebrook 7H9/OADC-Glycerol-Tween80 medium at 1 to 2 times MIC incubated for 7 days", "assay_type": "functional", "settings": "time 7 day"}, "[7]": {"test": "Intrinsic clearance in C57/BL6 mouse blood at 2 mg/kg, iv administered as bolus dose measured upto 24 hrs by LC-MS/MS analysis", "assay_type": "ADME, organism-based", "settings": "in vivo"}, "[8]": {"test": "Drug metabolism in C57/BL6 mouse blood assessed as glucuronide metabolite formation by HPLC analysis", "assay_type": "ADME, tissue-based"}, "[9]": {"test": "Metabolic stability in human liver microsomes assessed as parent compound remaining after 30 mins", "assay_type": "ADME, Microsome", "settings": "0.5 h"}, "[10]": {"test": "Volume of distribution during elimination phase in C57/BL6 mouse blood at 2 mg/kg, iv administered as bolus dose measured upto 24 hrs by LC-MS/MS analysis", "assay_type": "ADME, organism-based"}, "[11]": {"test": "Aqueous solubility of compound at pH 7.4", "assay_type": "physicochemical", "settings": "buffer"}, "[12]": {"test": "Oral bioavailability in C57/BL6 mouse blood at 20 mg/kg measured upto 24 hrs by LC-MS/MS analysis", "assay_type": "ADME, organism-based", "settings": "for bioavailability: C57/BL6, mouse, blood"}, "[13]": {"test": "Apparent half life in C57/BL6 mouse blood at 2 mg/kg, iv administered as bolus dose measured upto 24 hrs by LC-MS/MS analysis", "assay_type": "ADME, organism-based", "settings": "for half-life: C57/BL6, mouse, blood, read-out: t1/2(app) (converted)"}, "[14]": {"system": "Mycobacterium tuberculosis", "test": "Antimycobacterial activity against wild-type Mycobacterium tuberculosis H37Rv assessed as inhibition of bacterial growth grown under middlebrook 7H9 medium incubated for 7 days by alamar blue broth microdilution method", "assay_type": "functional", "settings": "168 h, time 7 day"}, "[15]": {"test": "Metabolic stability in mouse liver microsomes assessed as parent compound remaining after 30 mins", "assay_type": "ADME, Microsome", "settings": "0.5 h"}, "[16]": {"system": "Mycobacterium tuberculosis", "assay_type": "functional", "settings": "H37Rv, 168 h, time 7 day"}, "[17]": {"test": "Protein binding in human plasma assessed as unbound fraction at 5 uM incubated for 1 hr at 37 degreeC and measured after 4 hrs by ultracentrifugation based LC-MS/MS analysis", "assay_type": "ADME, cell-free", "settings": "5 h"}, "[18]": {"test": "Total blood clearance in C57/BL6 mouse blood at 2 mg/kg, iv administered as bolus dose measured upto 24 hrs by LC-MS/MS analysis", "assay_type": "ADME, organism-based"}, "[19]": {"test": "Cmax in C57/BL6 mouse blood at 20 mg/kg, po measured upto 24 hrs by LC-MS/MS analysis", "assay_type": "ADME, organism-based", "parameters": "route oral, dose 20 mg/kg, time <=24"}, "[20]": {"test": "AUC (0 to infinity) in C57/BL6 mouse blood at 2 mg/kg, iv administered as bolus dose measured upto 24 hrs by LC-MS/MS analysis", "assay_type": "ADME, organism-based", "parameters": "route intravenous, dose 2 mg/kg, time <=24", "settings": "for AUC(0-inf): C57/BL6, mouse, blood"}, "[21]": {"test": "Tmax in C57/BL6 mouse blood at 20 mg/kg, po measured upto 24 hrs by LC-MS/MS analysis", "assay_type": "ADME, organism-based"}, "CHO": {"system": "CHO", "test": "Cytotoxicity against CHO cells assessed as reduction in cell viability by MTT assay", "assay_type": "cell-based", "settings": "Cricetulus griseus"}, "[22]": {"test": "Metabolic stability in rat liver microsomes assessed as parent compound remaining after 30 mins", "assay_type": "ADME, Microsome", "settings": "0.5 h"}, "[23]": {"target": "Voltage-gated inwardly rectifying potassium channel KCNH2 (Homo sapiens, UniProt Q12809)", "sequence (Q12809 whole entry)": "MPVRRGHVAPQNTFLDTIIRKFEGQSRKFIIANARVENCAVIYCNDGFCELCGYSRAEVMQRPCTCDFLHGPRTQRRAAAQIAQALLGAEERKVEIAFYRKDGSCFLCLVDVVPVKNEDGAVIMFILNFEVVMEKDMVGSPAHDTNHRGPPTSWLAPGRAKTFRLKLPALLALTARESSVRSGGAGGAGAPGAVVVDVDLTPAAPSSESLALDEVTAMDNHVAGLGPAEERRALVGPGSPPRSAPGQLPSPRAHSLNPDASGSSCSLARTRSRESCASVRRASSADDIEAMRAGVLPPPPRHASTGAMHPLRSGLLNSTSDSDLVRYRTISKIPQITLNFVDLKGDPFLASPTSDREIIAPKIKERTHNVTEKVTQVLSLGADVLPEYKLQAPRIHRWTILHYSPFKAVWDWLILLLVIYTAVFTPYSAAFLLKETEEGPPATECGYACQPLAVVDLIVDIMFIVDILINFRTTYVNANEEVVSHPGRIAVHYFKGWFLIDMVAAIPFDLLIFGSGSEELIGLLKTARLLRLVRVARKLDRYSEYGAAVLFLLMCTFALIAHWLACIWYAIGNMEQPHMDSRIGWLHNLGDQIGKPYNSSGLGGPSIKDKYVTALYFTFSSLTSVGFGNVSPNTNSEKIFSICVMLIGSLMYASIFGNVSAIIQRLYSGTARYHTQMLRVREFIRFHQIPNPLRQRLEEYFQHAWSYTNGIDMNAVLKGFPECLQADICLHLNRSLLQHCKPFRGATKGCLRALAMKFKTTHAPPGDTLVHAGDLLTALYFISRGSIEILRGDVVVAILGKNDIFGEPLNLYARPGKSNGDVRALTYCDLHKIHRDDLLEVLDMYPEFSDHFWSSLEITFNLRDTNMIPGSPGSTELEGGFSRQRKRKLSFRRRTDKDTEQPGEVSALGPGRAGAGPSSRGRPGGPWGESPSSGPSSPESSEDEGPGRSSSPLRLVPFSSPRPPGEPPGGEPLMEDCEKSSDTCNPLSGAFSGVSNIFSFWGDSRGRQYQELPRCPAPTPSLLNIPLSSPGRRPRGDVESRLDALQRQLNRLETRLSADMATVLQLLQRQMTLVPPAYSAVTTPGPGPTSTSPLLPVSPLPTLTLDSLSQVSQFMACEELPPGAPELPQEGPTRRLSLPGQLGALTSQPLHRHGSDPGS", "test": "Inhibition of human ERG"}, "[24]": {"settings": "C57/BL6, mouse, blood, read-out: Vd"}, "[25]": {"settings": "C57/BL6, mouse, blood, read-out: Tmax"}},
  "note": "Activity calls are given as the source filed them. The rule behind the calls is not given here.",
  "data": [
    {"smiles": "CCNc1cc(C)nn1-c1nc(-c2cccnc2)cc(=O)[nH]1", "values": [
      {"measurement": "Activity", "setting": "[1]", "value": "Active"},
      {"measurement": "half-life", "setting": "[2]", "value": 6.1, "unit": "h"},
      {"measurement": "Cmax", "setting": "[3]; C57/BL6, mouse, blood", "value": 33.1, "unit": "µM"},
      {"measurement": "Kinetic_solubility", "setting": "[4]", "value": 90, "unit": "µM"},
      {"measurement": "AUC(0-inf)", "setting": "[5]", "value": 1090, "unit": "µM·h"},
      {"measurement": "Activity", "setting": "[6]", "value": 2, "unit": "log10CFU"},
      {"measurement": "CL", "setting": "[7]", "value": 34, "unit": "mL/min/kg"},
      {"measurement": "Drug metabolism", "setting": "[8]", "value": "Metabolite_Detected"},
      {"measurement": "Stabilty", "setting": "[9]", "value": 80, "unit": "%"},
      {"measurement": "Vd", "setting": "[10]; [24]", "value": 0.1, "unit": "L/kg"},
      {"measurement": "solubility", "setting": "[11]", "value": 90, "unit": "µM"},
      {"measurement": "bioavailability", "setting": "[12]", "value": 44, "unit": "%"},
      {"measurement": "half-life", "setting": "[13]", "value": 4, "unit": "h"},
      {"measurement": "MIC", "setting": "[14]", "value": 5.8, "unit": "µM"},
      {"measurement": "Stabilty", "setting": "[15]", "value": 94, "unit": "%"},
      {"measurement": "MIC", "setting": "[16]", "value": 6.25, "unit": "µM"},
      {"measurement": "Fu", "setting": "[17]", "value": 0.009},
      {"measurement": "clearance", "setting": "[18]", "value": 0.4, "unit": "mL/min/kg"},
      {"measurement": "Cmax", "setting": "[19]; C57/BL6, mouse, blood", "value": 104, "unit": "µM"},
      {"measurement": "AUC(0-inf)", "setting": "[20]", "value": 256, "unit": "µM·h"},
      {"measurement": "Tmax", "setting": "[21]; [25]", "value": 1, "unit": "h"},
      {"measurement": "IC50", "setting": "CHO", "value": "> 50", "unit": "µM"},
      {"measurement": "Stabilty", "setting": "[22]", "value": 95, "unit": "%"}
    ]},
    {"smiles": "Cc1cc(Nc2ccc(F)cc2)n(-c2nc(C(F)(F)F)cc(=O)[nH]2)n1", "values": [
      {"measurement": "Activity", "setting": "[1]", "value": "Active"},
      {"measurement": "half-life", "setting": "[2]", "value": 4.4, "unit": "h"},
      {"measurement": "Cmax", "setting": "[3]; C57/BL6, mouse, blood", "value": 2.4, "unit": "µM"},
      {"measurement": "Kinetic_solubility", "setting": "[4]", "value": 15, "unit": "µM"},
      {"measurement": "AUC(0-inf)", "setting": "[5]", "value": 5.22, "unit": "µM·h"},
      {"measurement": "Activity", "setting": "[6]", "value": 2, "unit": "log10CFU"},
      {"measurement": "CL", "setting": "[7]", "value": "> 4000", "unit": "mL/min/kg"},
      {"measurement": "Stabilty", "setting": "[9]", "value": 98, "unit": "%"},
      {"measurement": "Vd", "setting": "[10]; [24]", "value": 37.4, "unit": "L/kg"},
      {"measurement": "solubility", "setting": "[11]", "value": 15, "unit": "µM"},
      {"measurement": "bioavailability", "setting": "[12]", "value": 33, "unit": "%"},
      {"measurement": "half-life", "setting": "[13]", "value": 5.6, "unit": "h"},
      {"measurement": "MIC", "setting": "[14]", "value": 1.2, "unit": "µM"},
      {"measurement": "Stabilty", "setting": "[15]", "value": 96, "unit": "%"},
      {"measurement": "MIC", "setting": "[16]", "value": 1.56, "unit": "µM"},
      {"measurement": "Fu", "setting": "[17]", "value": 0.013},
      {"measurement": "clearance", "setting": "[18]", "value": 80.9, "unit": "mL/min/kg"},
      {"measurement": "Cmax", "setting": "[19]; C57/BL6, mouse, blood", "value": 2.9, "unit": "µM"},
      {"measurement": "AUC(0-inf)", "setting": "[20]", "value": 1.52, "unit": "µM·h"},
      {"measurement": "Tmax", "setting": "[21]; [25]", "value": 0.5, "unit": "h"},
      {"measurement": "IC50", "setting": "CHO", "value": 20, "unit": "µM"},
      {"measurement": "Stabilty", "setting": "[22]", "value": 98, "unit": "%"}
    ]},
    {"smiles": "Cc1cc(C)n(-c2nc(C(F)(F)F)cc(=O)[nH]2)n1", "values": [
      {"measurement": "Activity", "setting": "[1]", "value": "Active"},
      {"measurement": "t1/2(app)", "setting": "[2]; mouse, in vivo, 20 mg/kg, 24 h", "value": 4, "unit": "h"},
      {"measurement": "Cmax", "setting": "[3]; mouse, in vivo, 24 h", "value": 29.1, "unit": "µM"},
      {"measurement": "Kinetic_solubility", "setting": "[4]", "value": 200, "unit": "µM"},
      {"measurement": "Activity", "setting": "[6]", "value": 2, "unit": "log10CFU"},
      {"measurement": "CL", "setting": "[7]", "value": 476, "unit": "mL/min/kg"},
      {"measurement": "Stabilty", "setting": "[9]", "value": "> 99", "unit": "%"},
      {"measurement": "Vd", "setting": "[10]; mouse, in vivo, 2 mg/kg, 24 h", "value": 0.7, "unit": "L/kg"},
      {"measurement": "solubility", "setting": "[11]", "value": 200, "unit": "µM"},
      {"measurement": "F", "setting": "[12]; mouse, in vivo, 20 mg/kg, 24 h", "value": 41, "unit": "%"},
      {"measurement": "t1/2(app)", "setting": "[13]; mouse, in vivo, 2 mg/kg, 24 h", "value": 3.1, "unit": "h"},
      {"measurement": "MIC", "setting": "[14]", "value": 15, "unit": "µM"},
      {"measurement": "Stabilty", "setting": "[15]", "value": "> 99", "unit": "%"},
      {"measurement": "MIC", "setting": "[16]", "value": 12, "unit": "µM"},
      {"measurement": "Fu", "setting": "[17]", "value": 0.006},
      {"measurement": "Cmax", "setting": "[19]; mouse, in vivo, 24 h", "value": 65.6, "unit": "µM"},
      {"measurement": "AUC", "setting": "[20]; mouse, in vivo, 24 h", "value": 2928, "unit": "µM·min"},
      {"measurement": "Tmax", "setting": "[21]; mouse, in vivo, 20 mg/kg, 24 h", "value": 0.5, "unit": "h"},
      {"measurement": "IC50", "setting": "[23]", "value": "> 30", "unit": "µM"},
      {"measurement": "IC50", "setting": "CHO", "value": 150, "unit": "µM"},
      {"measurement": "Stabilty", "setting": "[22]", "value": 92, "unit": "%"}
    ]}
  ]
}
